Measured values published in patent publication US20220024992A1, “COMPOSITIONS AND METHODS COMPRISING LYSOCINS AS BIOENGINEERED ANTIMICROBIALS FOR USE IN TARGETING GRAM-NEGATIVE BACTERIA” (The Rockefeller University, priority 2018, published 2022).
Values joined by “and” are separate entries in the source; they are usually repeats but may differ in a detail not shown here. Identical values can stand only once.

Legend:
[1] = system: pseudomonal PG (autoclaved P. aeruginosa); experiment: Muralytic plate lysis assay on autoclaved Pseudomonas; format: biochemical; conditions: 25 pmol spotted
P. aeruginosa strain 453 [2] = experiment: Transmission electron microscopy of lysocin-treated bacteria; format: cell-based; conditions: 50 μg/ml
Experimental: At 0, 30 and 60 min, an aliquot was removed and fixed with 100 mM sodium cacodylate, pH 7.4, containing 4% (vol/vol) paraformaldehyde and 2% (vol/vol) glutaraldehyde. TEM images were obtained by The Rockefeller University Electron Microscopy Resource Center.

B. cereus RSVF1 = experiment: MIC, modified broth microdilution, MHB; format: cell-based
Experimental: (§1) The MIC and MBC values were calculated using a modified version of the broth microdilution assay as previously described by the Clinical and Laboratory Standards Institute (CLSI) (45). The specific modifications were to the bacterial concentration and growth medium used. […] CAA medium was used for Gram-negative bacteria to simulate low iron conditions. Alternatively, MHB was used for Gram-positive bacteria due to their inability to grow in CAA medium. Bacterial growth was assessed by measuring the OD600 nm using a SpectraMax M5 microplate reader (Molecular Devices). The MIC was defined as the lowest antimicrobial concentration that inhibits bacterial growth. To determine the MBC, the contents from each well originating from the MIC microtiter plate was plated on CAA agar to quantitate bacterial viability. The MBC was defined as the lowest antimicrobial concentration required to kill ≥99.9% of the initial bacterial inoculum. Growth and sterility controls were included.

S. pyogenes D471 = experiment: MIC, modified broth microdilution, MHB; format: cell-based
Experimental: as §1

E. faecium EFSK-2 = experiment: MIC, modified broth microdilution, MHB; format: cell-based
Experimental: as §1

S. aureus NR-45946 = experiment: MIC, modified broth microdilution, MHB; format: cell-based
Experimental: as §1

P. aeruginosa strain 453 [3] = experiment: Endotoxin release (chromogenic LAL assay); format: cell-based; conditions: after 4 h treatment, 0.2× and 5×MIC
Experimental: Endotoxin Release P. aeruginosa strain 453 at 10^6 CFU/ml was treated with 0.2× and 5×MIC PyS2-GN4, colistin, meropenem or tobramycin in CAA medium for either 1 or 4 h at 37° C. The samples were subsequently centrifuged at 2,000×g for 10 min. The supernatant was collected and passed through a 0.2 μm syringe filter. Endotoxin concentration in the filtered supernatant was quantitated using the ToxinSensor Chromogenic LAL Endotoxin Assay Kit (GenScript). All data was depicted as the mean±SEM of duplicate experiments.

P. aeruginosa strain 453 [4] = experiment: Cell viability assays with 0.5 μM antimicrobial; conditions: iron-chelated CAA medium
Experimental: P. aeruginosa strain 453 were grown under iron-depleted conditions (see Bacterial Strains and Growth Conditions). The bacteria were harvested, washed and resuspended in fresh CAA medium with 0.5 mg/ml EDDHA. Using a 96-well flat-bottomed microtiter plate, the bacteria at ˜10^6 CFU/ml were incubated statically at 37° C. with either growth medium only (untreated control) or 0.5 μM purified antimicrobial. A 2 h incubation was used for the single time point experiments, whereas a 4 or 6 h incubation was used for the multiple time point assays. At various time points, an aliquot was removed from each sample, serially diluted and plated on CAA agar. After incubating the agar plates for up to 48 h at 37° C., colonies were counted in order to quantitate the CFU/ml concentration of surviving bacterial cells. Modifications were introduced to the aforementioned cell viability assay protocol for the experiment using P. aeruginosa grown in the presence of varying free iron concentrations. First, P. aeruginosa strain 453 were grown using iron-depleted or iron-rich conditions (CAA medium supplemented with 100 μM FeSO4) at 37° C. with aeration for a total of 16-18 h and subsequently assayed for lysocin sensitivity in PBS, pH 7.4. For the experiment analyzing lysocin activity in the presence of lung surfactant or serum, P. aeruginosa were incubated with or without lysocin in beractant ([sequence]; Abbvie) or HuS diluted 1:1 with 20 mM sodium phosphate, pH 7.0.

P. aeruginosa strain 453 [5] = experiment: Plate lysis assay using viable Pseudomonas; format: cell-based
Experimental: For determining muralytic activity, 25 pmol of each purified protein sample was spotted on 0.75% (wt/vol) agarose embedded with autoclaved P. aeruginosa in 50 mM Tris-HCl, pH 7.5. […] For elucidating antipseudomonal activity towards viable bacteria, 0.01-400 pmol of each purified protein sample was spotted on 0.75% (wt/vol) agarose comprising P. aeruginonsa strain 453 at an initial concentration of 5×10^6 CFU/ml in either CAA medium or CAA:HuS (1:1; HuS from pooled human male AB plasma, Sigma-Aldrich). Growth inhibition zones observed after 24 h incubation at 37° C. correspond to antipseudomonal activity. Buffer was spotted as a negative control.

P. aeruginosa strain 453 [6] = experiment: Dose-response cell viability assay (killing kinetics); format: cell-based; conditions: for reduction in bacterial viability: 0.1-100 μg/ml, CAA medium with EDDHA
Experimental: For the 12 h experiments, 0.01-100 μg/ml of PyS2-GN4 was incubated statically at 37° C. with P. aeruginosa strain 453 at 10^6 CFU/ml in CAA medium with 0.5 mg/ml EDDHA (Complete Green Company). At 2 h increments, an aliquot was removed from each sample, serial diluted and plated on CAA agar to determine viable bacterial counts. For the 24 h experiments, lysocin at 0.1-100 μg/ml was incubated statically at 37° C. with P. aeruginosa strain 453 at 10^6 CFU/ml in either CAA medium or CAA:HuS (1:1) with EDDHA. After 24 h, the samples were serial diluted and plated on CAA agar to assess bacterial viability. An untreated control was used for each data set. All samples were investigated in duplicate.

K. pneumoniae NR-41916 = experiment: MIC, modified broth microdilution, CAA medium; format: cell-based
Experimental: as §1

E. cloacae NR-50391 = experiment: MIC, modified broth microdilution, CAA medium; format: cell-based
Experimental: as §1

A. baumaneii ATCC 17978 = experiment: MIC, modified broth microdilution, CAA medium; format: cell-based
Experimental: as §1

E. coli ATCC 25922 = experiment: MIC, modified broth microdilution, CAA medium; format: cell-based
Experimental: as §1

P. aeruginosa strain 453 [7] = experiment: Murine model of bacteremia; format: in vivo, mice; conditions: for protected from death (survival over 10 days): 3 h post-infection
Experimental: A murine model of bacteremia using P. aeruginosa was adapted from previous studies (46-50). Briefly, male 6-week-old C57BL/6 mice (Charles River Laboratories) were IP infected with 10^8 P. aeruginosa strain 453 and then IP treated 3 h post-infection with a single dosage of either PBS or PyS2-GN4 at 2.5-25 mg/kg. Survival was monitored for 10 days. The collective results were obtained from four independent experiments and analyzed by Kaplan-Meier survival curves using GraphPad Prism. The Rockefeller University Institutional Animal Care and Use Committee approved all mouse experiments (protocol 17025).

P. aeruginosa strains = experiment: MIC and MBC, modified CLSI broth microdilution, CAA medium; format: cell-based
Experimental: as §1

P. aeruginosa strain 453 [8] = experiment: Lysocin thermal stability (residual antipseudomonal activity after heating); format: physicochemical; conditions: 30 min incubation in PBS, then 50 μg/ml for 4 h at 37° C.
Experimental: FIG. 7. Lysocin thermal stability. PyS2-GN4 was incubated in phosphate buffered saline (PBS) for 30 min at temperatures ranging from 4° C. to 80° C. After cooling on ice, each sample at 50 μg/ml was incubated statically with P. aeruginosa strain 453 for a total of 4 h at 37° C. The average residual antipseudomonal activity of each sample was equated to the log10 decrease in viable bacterial cells when compared to the untreated control. All error bars correspond to ±SEM of triplicate experiments.

PyS2-GN4: lysocin: PyS2 domains I-III, with domain IV (aa 559-689) deleted and replaced by the GN4 lysin (aa 1-144); 76 kDa
muralytic activity (clearing zones) on autoclaved P. aeruginosa [1]: degraded Pseudomonas PG
bacterial morphology by TEM (P. aeruginosa strain 453 [2]; 30 min post-treatment): transitioned from rod-shaped to a more spherical morphology
bacterial morphology by TEM (P. aeruginosa strain 453 [2]; 60 min post-treatment): intact, nonviable cells either lacking or with noticeably reduced cytoplasmic content
MIC (B. cereus RSVF1): >256 µg/mL
MIC (S. pyogenes D471): >256 µg/mL
MIC (E. faecium EFSK-2): >256 µg/mL
MIC (S. aureus NR-45946): >256 µg/mL
endotoxin release, fold less than meropenem and tobramycin (P. aeruginosa strain 453 [3]): ~100 fold
decrease in pseudomonal viability (P. aeruginosa strain 453 [4]; 3 h): 3.1 log10
viable bacterial cells relative to limit of detection (10 CFU/ml) (P. aeruginosa strain 453 [4]; duration of the experiment (6 h)): incapable of lowering the number of viable bacterial cells to the limit of detection
amount spotted at which activity could be observed (P. aeruginosa strain 453 [5]; 50% HuS): 0.13 pmol
amount spotted at which antipseudomonal activity was displayed (P. aeruginosa strain 453 [5]; growth medium (CAA)): 0.64 pmol
reduction in bacterial viability (P. aeruginosa strain 453 [6]; 2 h): ~2 log10
reduction in bacterial viability (P. aeruginosa strain 453 [6]; 4 h): ~3 log10
reduction in bacterial viability (P. aeruginosa strain 453 [6]; 12 h): ~4 log10
lysocin concentration that sterilized the bacterial culture (P. aeruginosa strain 453 [6]; 24 h, CAA medium and 50% HuS): 10 μg/ml and 132 nM
concentration at which bactericidal (P. aeruginosa strain 453 [6]; after 4 h): 0.1 µg/mL
MIC (K. pneumoniae NR-41916): >256 µg/mL
MIC (E. cloacae NR-50391): >256 µg/mL
MIC (A. baumaneii ATCC 17978): >256 µg/mL
MIC (E. coli ATCC 25922): >256 µg/mL
protected from death (survival over 10 days) (P. aeruginosa strain 453 [7]; 2.5 mg/kg IP): 73%
protected from death (survival over 10 days) (P. aeruginosa strain 453 [7]; 5 mg/kg IP): 80%
protected from death (survival over 10 days) (P. aeruginosa strain 453 [7]; 12.5 mg/kg IP): 93%
protected from death (survival over 10 days) (P. aeruginosa strain 453 [7]; 25 mg/kg IP): 100%
Pseudomonas in organs of surviving mice (P. aeruginosa strain 453 [7]; day 10): did not contain detectable Pseudomonas
MIC (P. aeruginosa strains; strain 452, FpvA type I): 4 µg/mL
MBC (P. aeruginosa strains; strain 453, FpvA type I): 0.25 µg/mL
MIC (P. aeruginosa strains; strain 453, FpvA type I): 0.25 µg/mL
MIC (P. aeruginosa strains; strain MDR-M-3, FpvA type I): 2 µg/mL
MIC (P. aeruginosa strains; strain PAO1, FpvA type I): 2 µg/mL
MIC values (P. aeruginosa strains; towards strain PAO1 and the 452, 453 and MDR-M-3 clinical isolates): ≤ 4 µg/mL
temperature at which bactericidal activity was fully retained (P. aeruginosa strain 453 [8]): 45 °C
